Laboratory results taken from patent US20220370390A1, “LIQUID ORAL FORMULATION OF BUMETANIDE” (NEUROCHLORE, priority 2019, published 2022).
Converted amounts (≈) assume the structure as drawn. Where two headings read alike, the source gives them in different places.

Columns and labels:
ASD core symptoms = experiment: Phase 2 clinical trial of oral bumetanide formulation; type: in vivo, children and adolescents; settings: oral liquid formulation twice a day, paediatric population
Protocol: A phase 2 clinical trial that was run with various doses of the following oral formulation of bumetanide according to the invention: • Active ingredient: bumetanide at 0.5 mg/ml 1.0 mg/ml 2.0 mg/ml and placebo • Antimicrobial preservative: sodium methylparaben and sodium propylparaben • Buffering agents: NaH2PO4.2H2O and NaH2PO4 • Sweetening agents: Acesulfame potassium and sorbitol • Solvent: water The pH is 6.5. The liquid oral formulation is stored in an amber glass bottle with polypropylene/low density polyethylene child-resistant and tamper-evident cap. A 1 ml dosing pipette, consisting of a polystyrene plunger and a low-density polyethylene barrel and piston was used to administer directly the solution into the mouth. The posology was an oral administration of the liquid formulation twice a day for a paediatric population.

[1] = cited from earlier work

In the case of `CCCCNc1cc(C(=O)O)cc(S(N)(=O)=O)c1Oc1ccccc1` [Bumetanide, 3-(Butylamino)-4-phenoxy-5-sulfamoylbenzoic acid], the “severity of ASD core symptoms” value (ASD core symptoms) is listed as “can reduce the severity of ASD core symptoms”, the solubility ([1]; in aqueous buffers) is listed as “sparingly soluble” and the solubility ([1]; in dimethyl formamide (DMF)) is listed as 33 mg/mL (≈ 90.6 mM). For the same molecule, the solubility ([1]; in ethanol) was 14 mg/mL (≈ 38.4 mM).
